# Data taken from patent US20240409609A1, “REVERSIBLE LYSINE COVALENT MODIFIERS OF EGFR AND USES THEREOF” (Terremoto Biosciences, Inc., priority 2021, published 2024).
# Key:
# [1] = biological target: WT-EGFR (Homo sapiens (Human), UniProt P00533); experiment: EGFR jump dilution study; format: biochemical; conditions: 100-fold dilution, 1 mM ATP, up to 10 hrs
# Method: Enzyme:inhibitor complexes were pre-formed at EGFR 100Y^1 final reaction concentration by incubating enzyme with an inhibitor at the greater concentration of either 10Y^1 inhibitor IC50, or 1:1.2 stoichiometry with enzyme.
# After incubating enzyme:inhibitor complexes on ice for 30 min, reactions were diluted in two steps 100-fold into reaction buffer supplemented with 1 mM ATP, and 20 uM AssayQuant substrate (AQT0734), with final reaction volumes of 20 μL in a 384 well reaction plate. Wells were read immediately and at timepoints post-dilution for up to 10 hrs in a PerkinElmer Ensight plate reader, according to the AssayQuant manufacturer's instructions.
# Data processing: Raw fluorescence signal was first background corrected by subtracting the fluorescence intensity of wells containing only the AssayQuant substrate, and no enzyme. Enzyme activity was normalized relative DMSO controls for each enzyme at each timepoint. In this way, DMSO-treated wells appear as a constant normalized activity=1 throughout the assay.
# The X-axis of each of the three graphs represents the time after dilution that the enzyme activity was measured, with t=0 representing the time of jump dilution. The Y-axis of each graph provides the enzymatic activity at each time point. Enzymatic activity is normalized to the DMSO-treated control samples (i.e., the same enzyme variant treated with DMSO instead of compound). As such, a DMSO-normalized value of 1.0 represents full enzymatic activity (i.e., equivalent to the DMSO-treated control), while a value below 1.0 represents reduced activity relative to control (i.e., some degree of enzyme inhibition at the time measured). The data points over time (e.g., from 0 to 600 minutes post-dilution) are therefore indicative of the off-rate for the compound. […] Thus, the jump-dilution data provided a qualitative estimate of the off-rate kinetics for each compound against the panel of EGFR variants. Experiments were run in duplicate, resulting in two different data sets for each graph.
# [2] = biological target: EGFR WT (Homo sapiens (Human), UniProt P00533); experiment: EGFR biochemical assay (AssayQuant chelation-enhanced fluorescence); conditions: 30 min preincubation, reaction time 360 min
# EGFR WT, sequence (P00533 668-1210): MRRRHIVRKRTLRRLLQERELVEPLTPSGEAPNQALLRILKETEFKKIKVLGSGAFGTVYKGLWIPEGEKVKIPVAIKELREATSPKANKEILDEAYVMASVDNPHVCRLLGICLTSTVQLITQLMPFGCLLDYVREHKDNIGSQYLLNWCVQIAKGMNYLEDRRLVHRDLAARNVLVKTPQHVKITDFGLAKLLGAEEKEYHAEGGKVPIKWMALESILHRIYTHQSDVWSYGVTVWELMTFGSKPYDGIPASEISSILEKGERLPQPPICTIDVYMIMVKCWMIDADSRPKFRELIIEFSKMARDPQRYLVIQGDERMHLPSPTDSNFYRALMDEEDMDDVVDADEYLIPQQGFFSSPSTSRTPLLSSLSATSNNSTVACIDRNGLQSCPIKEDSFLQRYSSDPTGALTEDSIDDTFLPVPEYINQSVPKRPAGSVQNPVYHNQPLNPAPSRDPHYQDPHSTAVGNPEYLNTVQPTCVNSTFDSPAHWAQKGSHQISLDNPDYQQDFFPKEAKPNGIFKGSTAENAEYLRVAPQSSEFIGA
# WT-EGFR, sequence (P00533 668-1210): as above
Compound,off-rate kinetics after jump dilution [1],IC50 [2]
COc1cc(N2CCC(N3CCN(C)CC3)CC2)ccc1Nc1ncc(-c2ccc(O)c(C=O)c2)c(Nc2ccccc2)n1 [Compound 3],slow-off kinetics,–
COc1cc(N2CCC(N3CCN(C)CC3)CC2)ccc1Nc1ncc(Cl)c(Nc2ccccc2-c2cccc(C=O)c2O)n1 [Compound 6],slow-off kinetics,> 1000 nM
C#CCNC(=O)c1cc(Nc2cc(C3CC3)[nH]n2)nc(N2CCN(Cc3ccc(C=O)c(O)c3)CC2)n1 [Compound 1],enzymatic activity quickly returned following dilution,–
COc1cc(N(C)CCN(C)C)c(NC(C)=O)cc1Nc1nccc(-c2cn(Cc3cccc(C=O)c3O)c3ccccc23)n1 [Compound 7],slow-off kinetics,–
